Experimental data published in publication PMC5117898 (International Journal of Nanomedicine, 2016).

Columns and labels:
HEI-OC1 cells = assay: Cellular uptake test of CPPs; format: cell-based, mouse; conditions: rhodamine-labeled peptides 0.025 mg/mL, flow cytometry
[1] = Dex loading and release study in simulated perilymph; format: physicochemical; conditions: dialysis loading, PCA 30 mg and Dex 6 mg in DMSO

Row | Substance | fluorescence intensity fold higher compared with Penetratin (HEI-OC1 cells) | fluorescence intensity fold higher compared with Tat (HEI-OC1 cells) | percentage of Dex loading [1]
1 | RRRRRRRR [Arg8] | 18.8±3.2 fold | 16.1±1.3 fold | –
2 | PHEA-g-C18-Arg8 [PCA nanoparticles] | – | – | 16.8%±3.2
